One block for each compound: values may come before it.
Legend:
Type in all cases: cell-based
[1] = tested on: Wnt activity (Sp5-Luc reporter, Wnt-responsive promoter) in SW480 colon carcinoma cells; assay: Wnt activity screening assay: Sp5-Luc reporter gene assay in SW480 cells; settings: Homo sapiens; for inhibition at 10 µM: read-out: percent inhibition at 10 μM (given for EC50 of >10 μM); for EC50: overnight incubation, 10-point curve starting from 10 μM
Outline: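 Wnt-driven firefly luciferase in SW480 colon carcinoma cells reports pathway activity after overnight compound exposure (10 μM top concentration, 3-fold steps). Signal is normalized to DMSO controls.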

IL-6 (THP-1 cells) = assay: IL-6 inhibition in LPS-stimulated THP-1 monocytes (HTRF); settings: Homo sapiens, IL-6 HTRF; for EC50: 500 ng/mL LPS, Table 6; for inhibition at 10 µM: LPS, Table 6, read-out: percent inhibition at 10 μM (given in parentheses for EC50 >10 μM)
Outline: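 THP-1 cells in 1% FBS pre-incubated 2 h with compound (10-point 1:3 series from 10 μM, 0.1% DMSO), then stimulated with 500 ng/mL LPS for 22 h at 37 °C. IL-6 measured by HTRF 665/620 ratio, normalized to DMSO; EC50 by four-parameter fit, or % inhibition at 10 μM when EC50 >10 μM.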

SW480 colon cancer cells = assay: Cell viability assay (CellTiter-Blue) in SW480 cells; settings: Homo sapiens, 96 h, four days; for inhibition at 10 µM: read-out: percent inhibition at 10 μM (given for EC50 of >10 μM); for EC50: CellTiter-Blue, 10 μM to 0.0045 μM
Outline: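 4-day exposure, 37 °C/5% CO2; ~2×10^3 SW480 cells/well; 8-pt 1:3 curve, 10–0.0045 μM, duplicates vs DMSO controls. Resazurin→resorufin fluorescence readout, ~3 h. EC50 by nonlinear fit; if >10 μM, % inhibition at 10 μM reported.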

SMILES: Cc1cn(-c2cccc3[nH]c(-c4n[nH]c5ccc(C6=CCNCC6)nc45)nc23)cn1 [Compound 618, 3-(4-(4-Methyl-1H-imidazol-1-yl)-1H-benzo[d]imidazol-2-yl)-5-(1,2,3,6-tetrahydropyridin-4-yl)-1H-pyrazolo[4,3-b]pyridine]
inhibition at 10 µM [1]: 1.2% | EC50 [1]: > 10 µM | EC50 (IL-6 (THP-1 cells)): > 10 µM | inhibition at 10 µM (IL-6 (THP-1 cells)): 42% | inhibition at 10 µM (SW480 colon cancer cells): 7.4% | EC50 (SW480 colon cancer cells): > 10 µM

SMILES: Cc1cn(-c2cccc3[nH]c(-c4n[nH]c5ccc(-c6cncc(N7CC(N)C7)n6)nc45)nc23)cn1 [Compound 622, 1-(6-(3-(4-(4-Methyl-1H-imidazol-1-yl)-1H-benzo[d]imidazol-2-yl)-1H-pyrazolo[4,3-b]pyridin-5-yl)pyrazin-2-yl)azetidin-3-amine]
inhibition at 10 µM [1]: 12.6% | EC50 [1]: > 10 µM | EC50 (IL-6 (THP-1 cells)): 0.38 µM | inhibition at 10 µM (SW480 colon cancer cells): 17.8% | EC50 (SW480 colon cancer cells): > 10 µM

SMILES: CN1CCN(c2cccc3[nH]c(-c4n[nH]c5ccc(-c6cnccn6)nc45)nc23)CC1 [Compound 648, 3-(4-(4-Methylpiperazin-1-yl)-1H-benzo[d]imidazol-2-yl)-5-(pyrazin-2-yl)-1H-pyrazolo[4,3-b]pyridine]
inhibition at 10 µM [1]: 37.9% | EC50 [1]: > 10 µM | EC50 (IL-6 (THP-1 cells)): 0.0695 µM | EC50 (SW480 colon cancer cells): 9.1 µM

SMILES: c1ccc2[nH]c(-c3n[nH]c4ccc(-c5cn[nH]c5)nc34)nc2c1 [Compound 651, 3-(1H-Benzo[d]imidazol-2-yl)-5-(1H-pyrazol-4-yl)-1H-pyrazolo[4,3-b]pyridine]
inhibition at 10 µM [1]: 40.2% | EC50 [1]: > 10 µM | EC50 (IL-6 (THP-1 cells)): > 10 µM | inhibition at 10 µM (IL-6 (THP-1 cells)): 0% | inhibition at 10 µM (SW480 colon cancer cells): 33.9% | EC50 (SW480 colon cancer cells): > 10 µM

SMILES: c1ccc2[nH]c(-c3n[nH]c4ccc(-c5cncc(OC6CCNCC6)c5)nc34)nc2c1 [Compound 656, 3-(1H-Benzo[d]imidazol-2-yl)-5-(5-(piperidin-4-yloxy)pyridin-3-yl)-1H-pyrazolo[4,3-b]pyridine]
inhibition at 10 µM [1]: 4.9% | EC50 [1]: > 10 µM | EC50 (IL-6 (THP-1 cells)): 1.4 µM | inhibition at 10 µM (SW480 colon cancer cells): 20.8% | EC50 (SW480 colon cancer cells): > 10 µM

SMILES: Oc1cncc(-c2ccc3[nH]nc(-c4nc5ccccc5[nH]4)c3n2)c1 [Compound 661, 5-(3-(1H-Benzo[d]imidazol-2-yl)-1H-pyrazolo[4,3-b]pyridin-5-yl)pyridin-3-ol]
inhibition at 10 µM [1]: 32.4% | EC50 [1]: > 10 µM | EC50 (IL-6 (THP-1 cells)): > 10 µM | inhibition at 10 µM (IL-6 (THP-1 cells)): 50.9% | inhibition at 10 µM (SW480 colon cancer cells): 29.2% | EC50 (SW480 colon cancer cells): > 10 µM

SMILES: O=C(CC1CCNCC1)Nc1cncc(-c2ccc3[nH]nc(-c4nc5c(-c6ccsc6)cccc5[nH]4)c3n2)c1 [Compound 673, 2-(Piperidin-4-yl)-N-(5-(3-(4-(thiophen-3-yl)-1H-benzo[d]imidazol-2-yl)-1H-pyrazolo[4,3-b]pyridin-5-yl)pyridin-3-yl)acetamide]
inhibition at 10 µM [1]: 14.9% | EC50 [1]: > 10 µM | EC50 (IL-6 (THP-1 cells)): > 10 µM | inhibition at 10 µM (IL-6 (THP-1 cells)): 24.8% | inhibition at 10 µM (SW480 colon cancer cells): 4.3% | EC50 (SW480 colon cancer cells): > 10 µM

SMILES: Cc1ncc(-c2ccc3[nH]nc(-c4nc5c(-c6ccoc6)cccc5[nH]4)c3n2)n1C [Compound 685, 5-(1,2-Dimethyl-1H-imidazol-5-yl)-3-(4-(furan-3-yl)-1H-benzo[d]imidazol-2-yl)-1H-pyrazolo[4,3-b]pyridine]
EC50 [1]: 0.257 µM | EC50 (IL-6 (THP-1 cells)): 9.37 µM | EC50 (SW480 colon cancer cells): 0.635 µM

SMILES: Cn1cc(-c2ccc3[nH]nc(-c4nc5c(-c6cccs6)cccc5[nH]4)c3n2)cn1 [Compound 700, 5-(1-Methyl-1H-pyrazol-4-yl)-3-(4-(thiophen-2-yl)-1H-benzo[d]imidazol-2-yl)-1H-pyrazolo[4,3-b]pyridine]
inhibition at 10 µM [1]: 37.8% | EC50 [1]: > 10 µM | EC50 (IL-6 (THP-1 cells)): > 10 µM | inhibition at 10 µM (IL-6 (THP-1 cells)): 27.4% | inhibition at 10 µM (SW480 colon cancer cells): 27.3% | EC50 (SW480 colon cancer cells): > 10 µM

SMILES: Cc1ccc(-c2cccc3[nH]c(-c4n[nH]c5ccc(C6=CCNCC6)nc45)nc23)s1 [Compound 730, 3-(4-(5-Methylthiophen-2-yl)-1H-benzo[d]imidazol-2-yl)-5-(1,2,3,6-tetrahydropyridin-4-yl)-1H-pyrazolo[4,3-b]pyridine]
EC50 [1]: 1.01 µM | EC50 (IL-6 (THP-1 cells)): 9.16 µM | EC50 (SW480 colon cancer cells): 0.642 µM

SMILES: Cc1ccc(-c2cccc3[nH]c(-c4n[nH]c5ccc(-c6cncc(OC7CCCCC7)c6)nc45)nc23)s1 [Compound 735, 5-(5-(Cyclohexyloxy)pyridin-3-yl)-3-(4-(5-methylthiophen-2-yl)-1H-benzo [d]imidazol-2-yl)-1H-pyrazolo[4,3-b]pyridine]
EC50 [1]: 3.81 µM | EC50 (IL-6 (THP-1 cells)): > 10 µM | inhibition at 10 µM (IL-6 (THP-1 cells)): 38.8% | inhibition at 10 µM (SW480 colon cancer cells): 32.3% | EC50 (SW480 colon cancer cells): > 10 µM

Continued, in another order:

EC50 [1]: > 10 µM | EC50 (IL-6 (THP-1 cells)): 0.929 µM | EC50 (SW480 colon cancer cells): > 10 µM
SMILES: O=C(CC1CCNCC1)Nc1cncc(-c2ccc3[nH]nc(-c4nc5c(-c6ccccn6)cccc5[nH]4)c3n2)c1 [Compound 593, 2-(Piperidin-4-yl)-N-(5-(3-(4-(pyridin-2-yl)-1H-benzo[d]imidazol-2-yl)-1H-pyrazolo[4,3-b]pyridin-5-yl)pyridin-3-yl)acetamide]
inhibition at 10 µM [1]: 26.6% | inhibition at 10 µM (SW480 colon cancer cells): 13.6%

EC50 [1]: > 10 µM | EC50 (IL-6 (THP-1 cells)): 1 µM | EC50 (SW480 colon cancer cells): > 10 µM
SMILES: Cc1cn(-c2cccc3[nH]c(-c4n[nH]c5ccc(-c6cncc(OCCN(C)C)c6)nc45)nc23)cn1 [Compound 627, N,N-Dimethyl-2-((5-(3-(4-(4-methyl-1H-imidazol-1-yl)-1H-benzo[d]imidazol-2-yl)-1H-pyrazolo[4,3-b]pyridin-5-yl)pyridin-3-yl)oxy)ethan-1-amine]
inhibition at 10 µM [1]: 38.1% | inhibition at 10 µM (SW480 colon cancer cells): 14.1%

EC50 [1]: 4.21 µM | EC50 (IL-6 (THP-1 cells)): 0.0939 µM | EC50 (SW480 colon cancer cells): 3.85 µM
SMILES: c1cc(-c2ccoc2)c2nc(-c3n[nH]c4ccc(-c5cncc(OCCN6CCCC6)c5)nc34)[nH]c2c1 [Compound 690, 3-(4-(Furan-3-yl)-1H-benzo[d]imidazol-2-yl)-5-(5-(2-(pyrrolidin-1-yl)ethoxy)pyridin-3-yl)-1H-pyrazolo[4,3-b]pyridine]

EC50 [1]: 1.37 µM | EC50 (IL-6 (THP-1 cells)): > 10 µM | EC50 (SW480 colon cancer cells): 2.1 µM
SMILES: COc1cncc(-c2ccc3[nH]nc(-c4nc5c(-c6ccoc6)cccc5[nH]4)c3n2)c1 [Compound 692, 3-(4-(Furan-3-yl)-1H-benzo[d]imidazol-2-yl)-5-(5-methoxypyridin-3-yl)-1H-pyrazolo[4,3-b]pyridine]
inhibition at 10 µM (IL-6 (THP-1 cells)): 53.2%

EC50 [1]: 4.19 µM | EC50 (IL-6 (THP-1 cells)): 5.89 µM | EC50 (SW480 colon cancer cells): 1.54 µM
SMILES: CN(C)CCOc1cncc(-c2ccc3[nH]nc(-c4nc5c(-c6cccs6)cccc5[nH]4)c3n2)c1 [Compound 707, N,N-Dimethyl-2-((5-(3-(4-(thiophen-2-yl)-1H-benzo[d]imidazol-2-yl)-1H-pyrazolo[4,3-b]pyridin-5-yl)pyridin-3-yl)oxy)ethan-1-amine]

EC50 [1]: 0.539 µM | EC50 (IL-6 (THP-1 cells)): 3.15 µM | EC50 (SW480 colon cancer cells): 1.41 µM
SMILES: Cn1cc(-c2ccc3[nH]nc(-c4nc5c(-c6cc(F)cc(CNS(C)(=O)=O)c6)cccc5[nH]4)c3n2)cn1 [Compound 764, N-(3-Fluoro-5-(2-(5-(1-methyl-1H-pyrazol-4-yl)-1H-pyrazolo[4,3-b]pyridin-3-yl)-1H-benzo[d]imidazol-4-yl)benzyl)methanesulfonamide]

EC50 [1]: > 10 µM | EC50 (IL-6 (THP-1 cells)): > 10 µM | EC50 (SW480 colon cancer cells): > 10 µM
SMILES: CS(=O)(=O)NCc1cc(F)cc(-c2cccc3[nH]c(-c4n[nH]c5ccc(-c6cncc(NC(=O)CC7CCNCC7)c6)nc45)nc23)c1 [Compound 769, N-(5-(3-(4-(3-Fluoro-5-(methylsulfonamidomethyl)phenyl)-1H-benzo[d]imidazol-2-yl)-1H-pyrazolo[4,3-b]pyridin-5-yl)pyridin-3-yl)-2-(piperidin-4-yl)acetamide]
inhibition at 10 µM [1]: 12.3% | inhibition at 10 µM (IL-6 (THP-1 cells)): 25.4% | inhibition at 10 µM (SW480 colon cancer cells): 0%

EC50 [1]: 0.48 µM | EC50 (IL-6 (THP-1 cells)): 0.164 µM | EC50 (SW480 colon cancer cells): 0.549 µM
SMILES: Cc1ncc(-c2ccc3[nH]nc(-c4nc5c(-c6cc(F)cc(NCCN(C)C)c6)cccc5[nH]4)c3n2)n1C [Compound 781, N^1-(3-(2-(5-(1,2-Dimethyl-1H-imidazol-5-yl)-1H-pyrazolo[4,3-b]pyridin-3-yl)-1H-benzo[d]imidazol-4-yl)-5-fluorophenyl)-N^2,N^2-dimethylethane-1,2-diamine]

EC50 [1]: 3.11 µM | EC50 (IL-6 (THP-1 cells)): 2.07 µM | EC50 (SW480 colon cancer cells): 3.56 µM
SMILES: CN(C)CCNc1cc(F)cc(-c2cccc3[nH]c(-c4n[nH]c5ccc(-c6cncc(OCCN7CCCC7)c6)nc45)nc23)c1 [Compound 786, N^1-(3-Fluoro-5-(2-(5-(5-(2-(pyrrolidin-1-yl)ethoxy)pyridin-3-yl)-1H-pyrazolo[4,3-b]pyridin-3-yl)-1H-benzo[d]imidazol-4-yl)phenyl)-N^2,N^2-dimethylethane-1,2-diamine]

EC50 [1]: 1.12 µM | EC50 (IL-6 (THP-1 cells)): 3.32 µM | EC50 (SW480 colon cancer cells): 0.722 µM
SMILES: CN(C)CCNc1cc(F)cc(-c2cccc3[nH]c(-c4n[nH]c5ccc(-c6cncc(OCc7ccccc7)c6)nc45)nc23)c1 [Compound 790, N^1-(3-(2-(5-(5-(Benzyloxy)pyridin-3-yl)-1H-pyrazolo[4,3-b]pyridin-3-yl)-1H-benzo[d]imidazol-4-yl)-5-fluorophenyl)-N^2,N^2-dimethylethane-1,2-diamine]

Reference: patent publication US10392383B2, “3-(1H-benzo[d]imidazol-2-yl)-1H-pyrazolo[4,3-b]pyridines and therapeutic uses thereof” (Samumed, LLC, priority 2015, dated 2019)
